# Experimental data from US11414424B2, “Cardiac sarcomere inhibitors” (Cytokinetics, Inc., priority 2018, dated 2022).
# Test system: bovine cardiac myofibrils
# Experiment: Myofibril assay: PK/LDH-coupled steady-state ATPase activity of skinned bovine cardiac myofibrils
# Type: biochemical
# Details: Ca2+ activating to 75% of maximal rate
# Method in brief: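 Steady-state ATPase of detergent-skinned bovine left-ventricular myofibrils (1 mg/mL), PK/LDH-coupled NADH read at 340 nm, in PIPES/MgCl2 buffer pH 6.8 with 50 μM ATP, 0.6 mM EGTA and CaCl2 set for 50% or 75% activation. Inhibition of activity measured.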
row,SMILES,CDMF75 IC15 [µM]
1,"C[C@H](c1ccc(Cl)cc1)N1C(=O)CN(c2ncc(Cl)cc2F)C(=O)C12CC2 [Compound 616, (R)-7-(5-chloro-3-fluoro-pyridin-2-yl)-4-(1-(4-chlorophenyl)ethyl)-4,7-diazaspiro[2.5]octane-5,8-dione]",11.85
2,"CC1(C2C(=O)N(c3ncc(Cl)cc3F)CC(=O)N2Cc2ccc(C(F)(F)F)cc2)COC1 (stereo not drawn) [Compound 623, 1-(5-chloro-3-fluoropyridin-2-yl)-3-(3-methyloxetan-3-yl)-4-(4-(trifluoro-methyl)-benzyl)piperazine-2,5-dione]",3.0
3,"CC1(C2C(=O)N(c3ncc(Cl)cc3F)CC(=O)N2Cc2ccc(Cl)cc2)COC1 (stereo not drawn) [Compound 624, 1-(5-chloro-3-fluoropyridin-2-yl)-4-(4-chlorobenzyl)-3-(3-methyloxetan-3-yl)-piperazine-2,5-dione]",2.0
4,"CC(=O)NC[C@H]1C(=O)N(c2ncc(Cl)cc2F)CC(=O)N1Cc1ccc(C(F)(F)F)cc1 [Compound 625, (S)-N-((4-(5-chloro-3-fluoropyridin-2-yl)-3,6-dioxo-1-(4-(trifluoro-methyl)benzyl)piperazin-2-yl)methyl)acetamide]",14.5
5,"CC(=O)NC[C@@H]1C(=O)N(c2ncc(Cl)cc2F)CC(=O)N1Cc1ccc(C(F)(F)F)cc1 [Compound 626, (R)-N-((4-(5-chloro-3-fluoropyridin-2-yl)-3,6-dioxo-1-(4-(trifluoro-methyl)benzyl)piperazin-2-yl)methyl)acetamide]",>39
6,"CC(=O)NCC1C(=O)N(c2ncc(Cl)cc2F)CC(=O)N1Cc1ccc(C(F)(F)F)cc1 (stereo not drawn) [Compound 629, N-((4-(5-chloro-3-fluoro-pyridin-2-yl)-3,6-dioxo-1-(4-(trifluoromethyl)-benzyl)piperazin-2-yl)-methyl)acetamide]",32.4
7,"O=C1C(C2COC2)N(Cc2ccc(Cl)cc2)C(=O)CN1c1ncc(Cl)cc1F (stereo not drawn) [Compound 633, 1-(5-chloro-3-fluoropyridin-2-yl)-4-(4-chlorobenzyl)-3-(oxetan-3-yl)piperazine-2,5-dione]",1.3
8,"CNC(=O)N1CC(C2C(=O)N(c3ncc(Cl)cc3F)CC(=O)N2Cc2ccc(C(F)(F)F)cc2)C1 (stereo not drawn) [Compound 641, 3-(4-(5-chloro-3-fluoro-pyridin-2-yl)-3,6-dioxo-1-(4-(trifluoromethyl)-benzyl)piperazin-2-yl)-N-methylazetidine-1-carboxamide]",12.2
9,"CNC(=O)N1CC(C2C(=O)N(c3ncc(Cl)cc3F)CC(=O)N2Cc2ccc(Cl)cc2)C1 (stereo not drawn) [Compound 642, 3-(4-(5-chloro-3-fluoro-pyridin-2-yl)-1-(4-chloro-benzyl)-3,6-dioxopiperin-2-yl)-N-methylazetidine-1-carboxamide]",10.9
10,"CC(=O)N1CC(C2C(=O)N(c3ncc(Cl)cc3F)CC(=O)N2Cc2ccc(Cl)cc2)C1 (stereo not drawn) [Compound 644, 3-(1-acetylazetidin-3-yl)-1-(5-chloro-3-fluoropyridin-2-yl)-4-(4-chlorobenzyl)-piperazine-2,5-dione]",6.8
11,"Cc1cc(Cl)cnc1N1CC(=O)N(Cc2ccc(C(F)(F)F)cc2)C(C2COC2)C1=O (stereo not drawn) [Compound 645, 1-(5-chloro-3-methylpyridin-2-yl)-3-(oxetan-3-yl)-4-(4-(trifluoromethyl)benzyl)-piperazine-2,5-dione]",5.8
12,"O=C1C(C2COC2)N(Cc2ccc(F)cc2)C(=O)CN1c1ncc(Cl)cc1F (stereo not drawn) [Compound 646, 1-(5-chloro-3-fluoropyridin-2-yl)-4-(4-fluorobenzyl)-3-(oxetan-3-yl)piperazine-2,5-dione]",3.3
13,"O=C1C(C2COC2)N(Cc2ccc(F)c(F)c2)C(=O)CN1c1ncc(Cl)cc1F (stereo not drawn) [Compound 647, 1-(5-chloro-3-fluoropyridin-2-yl)-4-(3,4-difluorobenzyl)-3-(oxetan-3-yl)piperazine-2,5-dione]",2.1
14,"Cc1cc(Cl)cnc1N1CC(=O)N(Cc2ccc(C(F)(F)F)cc2)C(CC2COC2)C1=O (stereo not drawn) [Compound 651, 1-(5-chloro-3-methylpyridin-2-yl)-3-(oxetan-3-ylmethyl)-4-(4-(trifluoromethyl)-benzyl)piperazine-2,5-dione]",7.3
15,"CC(=O)N1CC(C2C(=O)N(c3ncc(Cl)cc3C)CC(=O)N2Cc2ccc(C(F)(F)F)cc2)C1 (stereo not drawn) [Compound 653, 3-(1-acetylazetidin-3-yl)-1-(5-chloro-3-methylpyridin-2-yl)-4-(4-(trifluoromethyl)-benzyl)piperazine-2,5-dione]",19.9
16,"CC1(C(F)F)C(=O)N(c2ncc(Cl)cc2F)CC(=O)N1Cc1ccc(C(F)(F)F)cc1 (stereo not drawn) [Compound 657, 1-(5-chloro-3-fluoropyridin-2-yl)-3-(difluoromethyl)-3-methyl-4-(4-(trifluoro-methyl)-benzyl)piperazine-2,5-dione]",1.4
17,"Cc1cc(Cl)cnc1N1CC(=O)N(Cc2ccc(Cl)cc2)[C@@H](C(C)C)C1=O [Compound 660, (S)-1-(5-chloro-3-methylpyridin-2-yl)-4-(4-chlorobenzyl)-3-isopropyl-piperazine-2,5-dione]",0.84
18,"CC(=O)N1CC(CC2C(=O)N(c3ncc(Cl)cc3F)CC(=O)N2Cc2ccc(C(F)(F)F)cc2)C1 (stereo not drawn) [Compound 661, 3-((1-acetylazetidin-3-yl)methyl)-1-(5-chloro-3-fluoropyridin-2-yl)-4-(4-(trifluoromethyl)benzyl)-piperazine-2,5-dione]",17.0

# Continued, values first:
row,CDMF75 IC15 [µM],SMILES
1,1.3,"COC(=O)N1CC2(C1)C(=O)N(c1ncc(Cl)cc1F)CC(=O)N2[C@@H](C)c1ccc(C(F)(F)F)cc1 [Compound 615, methyl (S)-8-(5-chloro-3-fluoropyridin-2-yl)-6,9-dioxo-5-(1-(4-(trifluoro-methyl)phenyl)ethyl)-2,5,8-triazaspiro[3.5]-nonane-2-carboxylate]"
2,1.8,"C[C@@H](c1ccc(C(F)(F)F)cc1)N1C(=O)CN(c2ncc(Cl)cc2F)C(=O)C12CN(C=O)C2 [Compound 620, (S)-8-(5-chloro-3-fluoro-pyridin-2-yl)-6,9-dioxo-5-(1-(4-(trifluoromethyl)-phenyl)ethyl)-2,5,8-triazaspiro[3.5]nonane-2-carbaldehyde]"
3,17.3,"CC(=O)NCC1(C)C(=O)N(c2ncc(Cl)cc2F)CC(=O)N1Cc1ccc(Cl)cc1 (stereo not drawn) [Compound 631, N-((4-(5-chloro-3-fluoro-pyridin-2-yl)-1-(4-chloro-benzyl)-2-methyl-3,6-dioxopiperazin-2-yl)-methyl)acetamide]"
4,31.7,"CC(=O)NCC1C(=O)N(c2ncc(Cl)cc2F)CC(=O)N1Cc1ccc(Cl)cc1 (stereo not drawn) [Compound 632, N-((4-(5-chloro-3-fluoro-pyridin-2-yl)-1-(4-chloro-benzyl)-3,6-dioxopiperazin-2-yl)methyl)acetamide]"
5,1.3,"CC1(C(F)F)C(=O)N(c2ncc(Cl)cc2F)CC(=O)N1Cc1ccc(Cl)cc1 (stereo not drawn) [Compound 636, 1-(5-chloro-3-fluoropyridin-2-yl)-4-(4-chlorobenzyl)-3-(difluoromethyl)-3-methylpiperazine-2,5-dione]"
6,1.4,"O=C1C(CC2COC2)N(Cc2ccc(C(F)(F)F)cc2)C(=O)CN1c1ncc(Cl)cc1F (stereo not drawn) [Compound 639, 1-(5-chloro-3-fluoropyridin-2-yl)-3-(oxetan-3-ylmethyl)-4-(4-(trifluoromethyl)-benzyl)piperazine-2,5-dione]"
7,1.6,"O=C1C(CC2COC2)N(Cc2ccc(Cl)cc2)C(=O)CN1c1ncc(Cl)cc1F (stereo not drawn) [Compound 640, 1-(5-chloro-3-fluoropyridin-2-yl)-4-(4-chlorobenzyl)-3-(oxetan-3-ylmethyl)-piperazine-2,5-dione]"
8,5.8,"CC(=O)N1CC(C2C(=O)N(c3ncc(Cl)cc3F)CC(=O)N2Cc2ccc(C(F)(F)F)cc2)C1 (stereo not drawn) [Compound 643, 3-(1-acetylazetidin-3-yl)-1-(5-chloro-3-fluoropyridin-2-yl)-4-(4-(trifluoro-methyl)benzyl)piperazine-2,5-dione]"
9,2.0,"O=C1C(C2COC2)N(Cc2ccc(Cl)c(F)c2)C(=O)CN1c1ncc(Cl)cc1F (stereo not drawn) [Compound 648, 4-(4-chloro-3-fluorobenzyl)-1-(5-chloro-3-fluoropyridin-2-yl)-3-(oxetan-3-yl)-piperazine-2,5-dione]"
10,2.9,"O=C1C(C2COC2)N(Cc2ccc(C(F)(F)F)c(F)c2)C(=O)CN1c1ncc(Cl)cc1F (stereo not drawn) [Compound 649, 1-(5-chloro-3-fluoropyridin-2-yl)-4-(3-fluoro-4-(trifluoromethyl)benzyl)-3-(oxetan-3-yl)piperazine-2,5-dione]"
11,2.5,"O=C1C(C2COC2)N(Cc2ccc(C(F)F)cc2)C(=O)CN1c1ncc(Cl)cc1F (stereo not drawn) [Compound 650, 1-(5-chloro-3-fluoropyridin-2-yl)-4-(4-(difluoro-methyl)benzyl)-3-(oxetan-3-yl)piperazine-2,5-dione]"
12,9.0,"Cc1cc(Cl)cnc1N1CC(=O)N(Cc2ccc(C(F)(F)F)cc2)C(C2(C)COC2)C1=O (stereo not drawn) [Compound 652, 1-(5-chloro-3-methylpyridin-2-yl)-3-(3-methyloxetan-3-yl)-4-(4-(trifluoromethyl)-benzyl)piperazine-2,5-dione]"
13,5.3,"Cc1cc(Cl)cnc1N1CC(=O)N(Cc2ccc(Cl)cc2)C(C2COC2)C1=O (stereo not drawn) [Compound 654, 1-(5-chloro-3-methylpyridin-2-yl)-4-(4-chlorobenzyl)-3-(oxetan-3-yl)piperazine-2,5-dione]"
14,7.0,"Cc1cc(Cl)cnc1N1CC(=O)N(Cc2ccc(Cl)cc2)C(CC2COC2)C1=O (stereo not drawn) [Compound 655, 1-(5-chloro-3-methylpyridin-2-yl)-4-(4-chlorobenzyl)-3-(oxetan-3-ylmethyl)-piperazine-2,5-dione]"
15,9.9,"CC1(CCC(N)=O)C(=O)N(c2ncc(Cl)cc2F)CC(=O)N1Cc1ccc(C(F)(F)F)cc1 (stereo not drawn) [Compound 656, 3-(4-(5-chloro-3-fluoro-pyridin-2-yl)-2-methyl-3,6-dioxo-1-(4-(trifluoro-methyl)benzyl)piperazin-2-yl)propanamide]"
